Laboratory results as given in US11248022B2, “Glypican-3 peptide reagents and methods” (THE REGENTS OF THE UNIVERSITY OF MICHIGAN, priority 2017, dated 2022).
Ends that are not written are not given here.

Tested on: human HCC
Test: Immunofluorescence on human liver biopsies ex vivo
Description: Specific peptide binding to human HCC was confirmed on patient biopsies (n=41) ex vivo from University of Michigan Hospital. […] Antibody staining of the same tissue confirmed minimal GPC3 expression, FIG. 15B. Binding by ALL*-Cy5.5 peptide and AF488-labeled anti-GPC3 antibody co-localized on normal liver specimen with Pearson's correlation coefficient of p=0.62, FIG. 15C. Co-stained regions were also imaged at 40×, FIG. 15D and 100× (dashed box in Panel D) magnifications, FIG. 15E.
Quantitative comparison of ALL*-Cy5.5 binding to human HCC with normal liver, adenoma and cirrhosis tissue was summarized in FIG. 15U.

[1] = 41 patients, log-transformed data

## ALLANHEELFQT (SEQ ID NO: 1) peptide labeled with Cy5.5 via a GGGSK linker on the C-terminus (ALLANHEELFQTGGGSK-{Cy5.5}) [ALL*-Cy5.5]
[1]
  signal in HCC relative to adenoma: 2.48 fold
  signal in HCC relative to cirrhosis: 2.05 fold
  signal in HCC relative to normal: 3.43 fold
HCC tissue
  immunofluorescence staining: Strong intense staining
Adenoma tissue
  immunofluorescence staining: Minimal staining
Cirrhotic liver tissue
  immunofluorescence staining: moderate diffuse staining
Human normal liver tissue
  immunofluorescence staining: negative staining
